Test results reported in patent publication US5686416A, “Increasing blood-brain barrier permeability with permeabilizer peptides” (priority 1993, dated 1997).

Tests used:
C. neoformans = experiment: Experimentally-induced cryptococcal meningitis in rabbits, CSF colony counts; assay type: in vivo, Cryptococcus neoformans; settings: 1 mg AmB/kg daily i.v., Days 11 and 14
Protocol: Four day old cultures of C. neoformans containing 100 μg of chloramphenicol per mL were absorbed on cotton swabs, suspended in 15 mM phosphate-buffered saline, and adjusted to approximately 5×10^7 colony forming units (CFU)/mL. New Zealand White rabbits (2-3 kg) were immunosuppressed with 2.5 mg cortisone acetate administered intramuscularly (i.m.) beginning one day prior to inoculation with C. neoformans (Day 0), and once daily thereafter until study termination. On Day 1 rabbits were sedated with ketamine (100-150 mg) and xylazine (15-25 mg) i.m., and intracisternally inoculated with 0.3 mL of C. neoformans suspension. On Day 4 CSF was collected and plated on agar plates containing chloramphenicol to establish a baseline level for C. neoformans counts (CFU/mL), and drug treatment was then initiated. CSF samples were also withdrawn for C. neoformans counts on Days 7, 11 and 14. The duration of drug treatment was 10 days.
Each group size generally consisted of three to five animals. All treatments were administered via an ear vein, and permeabilizer A-7 was always administered immediately prior to AmB. CSF samples were always withdrawn prior to drug therapy on treatment days.

9L Glioma cells = experiment: Survival time of rats with brain tumor implants; assay type: in vivo
Protocol: Male Fischer 344 rats (200-250 g) were anesthetized with ketamine HCL (100 mg/kg) and acepromazine (10 mg/kg). The animals were placed in a stereotaxic device. The head of each animal was shaved and a midline incision was made to expose the skull. A small hole was drilled over the right sensorimotor cortex. A […] cell suspension (250,000 9L Glioma cells) was injected over 5 minutes into the right caudate putamen of each animal and the scalp sutured. Animals were observed daily for signs of failing health. When signs of very poor health were observed (eye hemorrhage or loss of righting reflex) animals were euthanatized and the brains examined for presence of tumor.
The results are shown in Table III as median survival with range.

dopamine receptors = settings: rats; 300 μg domperidone with or without 10 μg permeabilizer A-7, one hour before apomorphine 0.75 mg/kg s.c.
Protocol: Domperidone is a dopamine receptor antagonist used clinically as an anti-emetic by virtue of its action at the area postrema outside the blood-brain barrier.
The activity cages were standard size rat cages with two photocell beams running across the floor of each cage. Any movement of the rat through either of the beams was recorded by a computer. Locomotor activity was measured as the number of beam breaks in a sequence of 10-minute intervals over a two hour period.
The motor activity of the rats was measured in activity cages over 10-minute intervals for up to 2 hours post-apomorphine injection.

blood-brain barrier [1] = experiment: Uptake of radiolabelled substances of different molecular weights into the brain (Table I)
Protocol: The animals were euthanatized 10 minutes after the co-administration and the radioactivity present in brain was measured as described previously for ^14 C sucrose.

opiate receptor = experiment: Tail flick assay, antinociceptive effect of loperamide; assay type: in vivo; settings: mice; nalorphine 10 mg/kg i.p. 15 minutes before
Protocol: Female Nalb/C mice weighing approximately 20 g were used. The tail flick assay was performed using a Tail Flick Apparatus model TF6 (Emdie Instruments, Maidens, Va.). The intensity of the heat source was adjusted daily to yield a reaction time between 2.0 and 3.2 seconds in naive untreated mice. The maximum time of exposure to the heat source allowed was 7.5 seconds. The tail withdrawal reaction time of each mouse was measured 4 times at 10 second intervals immediately prior to intravenous injections of the experimental substances via the tail vein. The last three values were averaged and taken as baseline value (Vo). Another set of four measurements was taken at the following intervals after tail vein injection of the opiate receptor agonist loperamide with and without the other agents: immediately, 5 min, 10 min, 15 min, 30 min, and 60 min. The last three values for each of these time points (V) were averaged. […] The results were expressed as percent of maximum antinociceptive response according to the formula: 100×(V-Vo)/(7.5-Vo).

angiotensin II receptors = experiment: Drinking behavior of rats with angiotensin II analogue; assay type: in vivo; settings: 1 μg β-Asp^1 -angiotensin II, 10 μg permeabilizer A-7, with or without 8 μg saralasin i.v., 1 hour
Protocol: The volume of water consumed by each rat over a 1 hour interval was measured.
The saralasin was given because it is a known angiotensin II receptor antagonist. Again, the volume of water consumed by each rat over a 1 hour interval was measured.

blood-brain barrier [2] = experiment: Dose response of blood-brain barrier permeabilizers, sucrose uptake studies; assay type: in vivo; settings: mice; various amounts; FIGS. 3c and 3d
Protocol: Female Balb/C mice weighing approximately 20 g were used. All solutions were prepared in sterile phosphate-buffered saline. […] In other experiments, mice were euthanitized 10 minutes after the ^14 C sucrose administration. Blood was collected in heparinized tubes and centrifuged to separate plasma from the resulting pellet. Radioactivity in a 100 μl aliquot of plasma was measured by liquid scintillation counting after the addition of 15 ml of Aquasol-2 (Dupont). The brain was removed and homogenized in 2.5 ml of water and 2.5 ml of 1% sodium dodecyl sulfate (SDS). One ml of the homogenate was aliquoted and added to 15 ml of Aquasol-2 for counting. Brain uptake of sucrose was calculated and graphically expressed as percent of injected dose×100. […] Each data point represents the mean ± s.d. from 8 mice.

bradykinin receptor = target: T1, bradykinin receptor (Rattus norvegicus, UniProt P25023); experiment: Displacement of [^3 H]-bradykinin binding on rat brain endothelial cells; settings: no competing peptide; corrected for nonspecific binding
T1 construct: endogenous in cells; host or cells: cultured rat brain microvessel endothelial cells, passages 9 to 12, intact monolayers
T1 sequence (P25023 1-396): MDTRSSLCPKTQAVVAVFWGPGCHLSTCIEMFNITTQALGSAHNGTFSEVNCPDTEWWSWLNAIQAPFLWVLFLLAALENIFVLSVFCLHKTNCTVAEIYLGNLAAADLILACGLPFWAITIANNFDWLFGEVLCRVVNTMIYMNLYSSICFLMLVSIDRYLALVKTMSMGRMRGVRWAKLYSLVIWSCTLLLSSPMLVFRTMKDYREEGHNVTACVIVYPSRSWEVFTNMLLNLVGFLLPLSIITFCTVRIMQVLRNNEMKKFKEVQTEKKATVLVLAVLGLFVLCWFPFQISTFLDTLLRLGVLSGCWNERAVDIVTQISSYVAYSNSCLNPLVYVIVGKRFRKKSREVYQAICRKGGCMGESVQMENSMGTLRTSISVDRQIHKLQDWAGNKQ
Protocol: Endothelial cells employed in this study were isolated from individual rat brain microvessels and cultured. For binding studies, cells at passages 9 to 12 were seeded (at a 1:5 split) onto gelatinized 24-well tissue culture dishes. Binding experiments were conducted on day 7 after seeding. […] All subsequent manipulations were performed in the cold room, unless otherwise indicated.
To initiate binding incubations, the buffer was removed from cell layers and replaced with 0.4 mL fresh binding buffer at 4° C. containing [^3 H-pro^2,3 ]-bradykinin ([^3 H]-bradykinin) and competing non-radioactive peptides at concentrations indicated for the individual experiments. Triplicate wells were used for each experimental condition. For later determination of cell number, where indicated, certain wells were covered with binding buffer without radioligand and incubated in parallel with the other samples. […]
The dissociated cells were collected, diluted into 10 mL Isoton diluent, and cell numbers were determined with a Coulter counter. […] The two aliquots were pooled into a single scintillation vial, 10 mL of Hydrofluor scintillation fluid was added and samples were counted for tritium in a scintillation counter. […] Aliquots of each [^3 H]-bradykinin dilution that was added to the cells were counted along with the other samples. […]

[3] = Table IV, additional experiment

Molecule: C[C@@H]1[C@H](O)[C@@H](C)/C=C/C=C/C=C/C=C/C=C/C=C/C=C/[C@H](O[C@@H]2O[C@H](C)[C@@H](O)[C@H](N)[C@@H]2O)C[C@@H]2O[C@](O)(C[C@@H](O)C[C@@H](O)[C@H](O)CC[C@@H](O)C[C@@H](O)CC(=O)O[C@H]1C)C[C@H](O)[C@H]2C(=O)O [AmB, Amphotericin B]
- CSF C. neoformans counts compared to controls (C. neoformans): significantly lowered

Molecule: N.N.[Cl][Pt][Cl] [Cisplatin]
- Median Survival (9L Glioma cells; Table III, Fischer 344 rats, 9L glioma, i.v. treatment days 5 through 14, cisplatin 200 μg/rat, A-7 50 μg, bradykinin 1 mg): 13 days
- Survival, Range (9L Glioma cells; Table III, Fischer 344 rats, 9L glioma, treatment days 5 through 14): 9 to 18 days
- Median Survival (9L Glioma cells; [3]): 15.5 days
- Survival, Range (9L Glioma cells; [3]): 12 to 18 days

Molecule: O=c1[nH]c2ccccc2n1CCCN1CCC(n2c(=O)[nH]c3cc(Cl)ccc32)CC1 [Domperidone]
- effect on motor activity induced by apomorphine (dopamine receptors): little, if any, effect

Molecule: OC[C@H]1O[C@@](CO)(O[C@H]2O[C@H](CO)[C@@H](O)[C@H](O)[C@H]2O)[C@@H](O)[C@@H]1O [^14 C-Sucrose, Sucrose]
- % Injected Dose, +10 μg A-7 (blood-brain barrier [1]; mouse, in vivo, iv): 0.165 ± 0.049 % Injected Dose
- % Injected Dose, Control (blood-brain barrier [1]; mouse, in vivo, iv): 0.059 ± 0.014 % Injected Dose

Molecule: C=CCN1CC[C@]23c4c5ccc(O)c4O[C@H]2[C@@H](O)C=C[C@H]3[C@H]1C5 [nalorphine]
- effect of pretreatment on the antinociceptive response to permeabilizer A-7 and loperamide (opiate receptor): completely antagonized

Molecule: CNCC(=O)N[C@@H](CCCN=C(N)N)C(=O)N[C@H](C(=O)N[C@@H](Cc1ccc(O)cc1)C(=O)N[C@H](C(=O)N[C@@H](Cc1cnc[nH]1)C(=O)N1CCC[C@H]1C(=O)N[C@@H](C)C(=O)O)C(C)C)C(C)C [saralasin]
- water consumption (angiotensin II receptors): remained within a normal range

Molecule: Inulin [^3 H-Inulin]
- % Injected Dose, +10 μg A-7 (blood-brain barrier [1]; mice, brain, labelled molecule i.v. with 10 μg permeabilizer A-7, 10 minutes, mean ± s.d.): 0.110 ± 0.016 % Injected Dose
- % Injected Dose, Control (blood-brain barrier [1]; mice, brain, labelled molecule i.v. with saline, 10 minutes, mean ± s.d.): 0.075 ± 0.018 % Injected Dose

Molecule: [D-Arg^0 ]-A-7 [A-14]
- uptake of ^14 C-sucrose into the brain compared with A-7 (blood-brain barrier [2]): comparable to A-7

Molecule: [dehydro Pro^2,7 ]-A-7 [A-9]
- uptake of ^14 C-sucrose into the brain compared with A-7 (blood-brain barrier [2]): comparable to A-7

Molecule: ^3 H-Bovine Serum Albumin: radiolabelled bovine serum albumin, mol. weight 68,000
- % Injected Dose, +10 μg A-7 (blood-brain barrier [1]; mouse, in vivo, iv): 0.209 ± 0.056 % Injected Dose
- % Injected Dose, Control (blood-brain barrier [1]; mouse, in vivo, iv): 0.333 ± 0.098 % Injected Dose

Molecule: arginine-proline-proline-glycine-phenylalanine-serine-proline-phenylalanine-arginine [[^3 H]-bradykinin]
- Scatchard analysis of [^3 H]-bradykinin binding (bradykinin receptor): two affinity classes of [^3 H]-bradykinin binding site

B1: ^3 H-Ovalbumin: radiolabelled ovalbumin, mol. weight 46,000 (protein, UniProt P01012 2-386, looked up)
Ovalbumin: GSIGAASMEFCFDVFKELKVHHANENIFYCPIAIMSALAMVYLGAKDSTRTQINKVVRFDKLPGFGDSIEAQCGTSVNVHSSLRDILNQITKPNDVYSFSLASRLYAEERYPILPEYLQCVKELYRGGLEPINFQTAADQARELINSWVESQTNGIIRNVLQPSSVDSQTAMVLVNAIVFKGLWEKAFKDEDTQAMPFRVTEQESKPVQMMYQIGLFRVASMASEKMKILELPFASGTMSMLVLLPDEVSGLEQLESIINFEKLTEWTSSNVMEERKIKVYLPRMKMEEKYNLTSVLMAMGITDVFSSSANLSGISSAESLKISQAVHAAHAEINEAGREVVGSAEAGVDAASVSEEFRADHPFLFCIKHIATNAVLFFGRCVSP
modifications: tritium label
- % Injected Dose, +10 μg A-7 (blood-brain barrier [1]; mouse, in vivo, iv): 0.093 ± 0.017 % Injected Dose
- % Injected Dose, Control (blood-brain barrier [1]; mouse, in vivo, iv): 0.079 ± 0.016 % Injected Dose

B2: ^3 H-RNase: radiolabelled RNase, mol. weight 12,600 (protein, UniProt P61823 27-150, looked up)
Ribonuclease pancreatic: KETAAAKFERQHMDSSTSAASSSNYCNQMMKSRNLTKDRCKPVNTFVHESLADVQAVCSQKNVACKNGQTNCYQSYSTMSITDCRETGSSKYPNCAYKTTQANKHIIVACEGNPYVPVHFDASV
modifications: tritium label
- % Injected Dose, +10 μg A-7 (blood-brain barrier [1]; mouse, in vivo, iv): 0.117 ± 0.030 % Injected Dose
- % Injected Dose, Control (blood-brain barrier [1]; mouse, in vivo, iv): 0.123 ± 0.039 % Injected Dose
